The text below walks through data of patent US5817634A, “Methods of treating diabetes mellitus and clycogen storage disease” (The UAB Research Foundation, priority 1994, dated 1998).

In one test the target is T1, glycogenin (Bos taurus, UniProt Q29RN2).
T1 construct: chromatography of a 105,000×g supernatant from a homogenate of beef kidney on DE-53 cellulose; tissue local slaughter house; host or cells: beef kidney
T1 sequence (Q29RN2 1-333): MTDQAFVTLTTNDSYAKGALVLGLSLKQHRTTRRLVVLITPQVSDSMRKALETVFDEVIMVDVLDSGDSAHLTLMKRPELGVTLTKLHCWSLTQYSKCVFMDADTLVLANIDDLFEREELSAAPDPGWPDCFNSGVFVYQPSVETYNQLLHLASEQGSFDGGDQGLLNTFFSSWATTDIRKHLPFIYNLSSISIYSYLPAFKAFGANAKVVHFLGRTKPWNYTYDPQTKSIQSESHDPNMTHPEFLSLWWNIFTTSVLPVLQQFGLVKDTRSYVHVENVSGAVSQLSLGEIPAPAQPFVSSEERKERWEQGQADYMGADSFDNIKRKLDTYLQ
The test can be described thus: Glycogenin assay: transfer of glucose or xylose from the UDP-sugar to exogenous glycoside acceptors. Type of test: biochemical, beef. Conditions: for inhibition of transfer of [3H]glucose to DBM by glycogenin: inhibitor 0.1-0.5 mM, acceptor DBM; for activity as glucose acceptor substrate for glycogenin: UDP-[3H]glucose donor, 60 min at 37° C. An excerpt: Glycogenin is a self-glycosylating glycosyltransferase which can be obtained from muscle and which can also be obtained from rat and beef kidney. The enzyme is capable of transferring glucose and xylose from the respective UDP-sugar substrates to itself and also of transferring these sugars to exogenous acceptors, such as dodecyl-β-D-maltoside, tetradecyl-β-D-maltoside, octyl-β-D-maltoside, octyl-α-D-glucoside and other glycosides, as described herein.
Fresh beef kidney was purchased from a local slaughter house. Purification of glycogenin from kidney involves the following steps: chromatography of a 105,000×g supernatant from a homogenate of beef kidney on DE-53 cellulose, chromatofocusing and chromatography on a column of UDP-glucuronic acid-agarose, which was eluted with cytidine 5'-diphosphate(CDP). […] The protein concentration of the affinity purified enzyme was determined to be 10 μg/ml with the Quantigold protein reagent (Diversified Biotech, Newton Centre, Mass.).
An appropriate sample of UDP-[^3 H] glucose or UDP-[^3 H] xylose (supplied in 70% ethanol by the manufacturer) was evaporated to dryness with a gentle stream of filtered air and dissolved in 50 mM Tris Cl, pH 7.4/75 mM BAL/1.5 mM ATP. […] After incubation for 60 min at 37° C. product formation was measured by either of the two procedures described below.
Product isolation by precipitation with trichloracetic acid. After completed incubation, 1% bovine serum albumin (50 μl) and 10% trichloracetic acid/4% phosphotungstic acid (150 μl) were added, and the mixture was vortexed and kept on ice for at least 15 min. The precipitate was sedimented by centrifugation in a microfuge and washed three times with 5% trichloroacetic acid. The bottom of the tube, containing the pellet, was clipped off with a dog nail clipper and dropped into a 6 ml scintillation vial, the protein was dissolved in 250 μl of 2M NaOH, and, after neutralization with 250 μl of 2M HCl, 4.5 ml of Ecolume was added, and the radioactivity was measured.
Product isolation by adsorption to SepPak C18 cartridges. The reaction mixture was brought to a, volume of 0.5 ml by addition of water and was heated to 100° C. for 1 min. After cooling to room temperature, the mixture was centrifuged, and a 10 μl aliquot was removed for measurement of total radioactivity. The remaining 490 μl was applied with the use of a 10 ml syringe to a SepPak C18 cartridge, which had been preconditioned by washing with 8 ml of 95% ethanol, 8 ml of 70% ethanol, and 20 ml of water. After sample application, the cartridge was washed with 2×9 ml of water, followed by an additional 2 ml portion of water, and adsorbed radioactive material was then eluted with 3×4 ml of 70% ethanol. Typically, no significant radioactivity was found in the last water wash, and most of the bound radioactive material was found in the first ethanol eluate.
Gel electrophoresis and autoradiography. SDS-PAGE was carried out with slight modification of Laemmli (Laemmli, U. K., Nature, 227:680-685 (1970)). A Hoefer vertical slab gel electrophoresis unit (Hoefer Scientific Instruments, San Francisco, Calif.) was used for casting and electrophoresing with a 10% (w/v) acrylamide separating gel and a 4.5% (w/v) acrylamide stacking gel. Reaction mixtures, with total volumes of 75 μl, containing 0.15 μCi (0.26 μM) UDP-[^3 H] glucose, 10 ng of affinity purified enzyme (intact or heat denatured), in the absence and presence of increasing concentrations of DBM were incubated at 37° C. for 60 min. The reaction was terminated by addition of 5 μl of water and 20 μl of sample reducing buffer (5× concentrated) to give final concentrations of 40 mM Tris-Cl, pH 6.8, 1.5% (w/v) SDS, 6% (v/v) glycerol, 100 mM DTT and 0.002% (w/v) bromophenol blue and heated to 100° C. for 3 min. The supernatant was applied to the gel and electrophoresed at 7.5 mA for 16 hours. […]

The target in test [1] is T2, Rabbit muscle glycogen synthase (Oryctolagus cuniculus, UniProt P13834).
T2 construct: purchased Sigma Chemical Co; host or cells: rabbit muscle
T2 sequence (P13834 1-735): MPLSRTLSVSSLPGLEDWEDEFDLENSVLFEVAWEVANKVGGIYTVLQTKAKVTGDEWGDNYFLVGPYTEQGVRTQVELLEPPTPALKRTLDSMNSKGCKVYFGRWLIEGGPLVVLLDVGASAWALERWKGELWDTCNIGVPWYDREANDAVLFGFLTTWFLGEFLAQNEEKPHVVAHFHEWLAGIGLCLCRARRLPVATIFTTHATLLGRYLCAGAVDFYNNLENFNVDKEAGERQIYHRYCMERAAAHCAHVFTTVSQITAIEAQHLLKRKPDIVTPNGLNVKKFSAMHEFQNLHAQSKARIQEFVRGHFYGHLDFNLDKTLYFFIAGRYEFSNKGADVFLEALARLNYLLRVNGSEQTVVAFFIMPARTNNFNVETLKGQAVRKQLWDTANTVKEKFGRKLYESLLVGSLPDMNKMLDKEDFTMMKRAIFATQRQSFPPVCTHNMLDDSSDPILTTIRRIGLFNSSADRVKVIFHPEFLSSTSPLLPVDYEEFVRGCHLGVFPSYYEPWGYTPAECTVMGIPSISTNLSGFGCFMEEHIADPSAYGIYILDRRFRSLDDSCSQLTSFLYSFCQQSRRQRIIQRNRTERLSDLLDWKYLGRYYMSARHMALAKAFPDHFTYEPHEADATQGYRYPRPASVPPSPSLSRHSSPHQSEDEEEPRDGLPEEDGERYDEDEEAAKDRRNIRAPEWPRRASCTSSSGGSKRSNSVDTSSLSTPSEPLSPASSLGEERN
The test can be described thus: Glycogen synthase assay: glucose transfer from UDP-glucose to acceptor. Conditions: for rank as glucose acceptor for glycogen synthase: octyl-, dodecyl- and tetradecyl-maltosides compared, with G-6-P. The test is classed as biochemical. How it is done: Rabbit muscle glycogen synthase obtained from Sigma Chemical Co., (7.6 μg) was incubated with 0.45 μCi UDP-[^3 H]glucose (specific activity of 10.4 Ci/mmol), 1 mM UDP-glucose (glucose donor), 10 mM glucose-6-phosphate (the natural activator of glycogen synthase) and 1 mg glycogen (glucose acceptor) in 25 mM EDTA/5 mM DTT/100 mM glycine. NaOH buffer, pH 8.6 in a total volume of 100 μl for 30-240 minutes at 37° C. At different time points, glycogen was precipitated from the reaction mixtures with ethanol and the precipitate washed to remove any unincorporated radiolabel. The glycogen precipitate was then solubilized and counted in a liquid scintillation counter to quantitate the amount of [^3 H]glucose incorporated into glycogen.
Results. When DBM (0.5 mM) replaces glycogen as the glucose acceptor in the incubation mixture, a linear transfer of glucose to DBM with time is seen up to 4 hours, with the glucose transfer amounting to about 20% of the maximal value seen with glycogen (using the SepPak C18 assay).
When glycogen synthase was incubated for 24 hours with G-6-P, UDP-[^3 H]glucose and 0.5 mM DBM, several products of glucose transfer to DBM could be visualized following separation by thin layer chromatography and autoradiography. These products corresponded to the dodecyl-maltotrioside,-tetraoside, -pentaoside, -hexaoside, -heptaoside and higher oligosaccharide derivatives of DBM. […] Therefore, DBM and other suitable glycosides can serve as glucose acceptors for both glycogen synthase and glycogenin to promote glucose disposal in conditions such as hyperglycemia and diabetes mellitus. Providing an abundance of acceptor substrates in tissues, such as liver, which has a smaller number of extremely large glycogen molecules can alleviate the problem of excessive glycogen deposition in the glycogen storage diseases by promoting glucose disposal into more readily handled smaller glucose polymers built on DBM or other glycosides.

“Also recorded” adds a separate entry of the source.

On to `Nc1ccn([C@@H]2O[C@H](COP(=O)(O)OP(=O)(O)O)[C@@H](O)[C@H]2O)c(=O)n1` [Cytidine 5'-diphosphate, reference compound], for which the “inhibition of transfer of [3H]glucose to DBM by glycogenin” value on glycogenin is “inhibited the transfer of [^3 H]glucose to DBM by glycogenin in a dose dependent manner”; on glycogenin (listed as CDP), “dose-dependent inhibition”.
Take `CCCCCCCCCCCCO[C@@H]1O[C@H](CO)[C@@H](O[C@H]2O[C@H](CO)[C@@H](O)[C@H](O)[C@H]2O)[C@H](O)[C@H]1O` [DBM, dodecyl-β-D-maltoside]: the “activity as glucose acceptor substrate for glycogenin” value (“activity … for glycogenin” below) at glycogenin is “dose-dependent fashion; also recorded: best acceptor for glucose”. Besides, the “xylose acceptor for glycogenin (product formed)” value on glycogenin (UDP-[3H]xylose as donor substrate) was “DBM-xylose was formed”. Besides, the “glucose acceptor activity of DBM relative to octyl-β-D-maltoside” value at glycogenin (comparator octyl-β-D-maltoside) is “four times better”. Moreover, at glycogenin (comparator tetradecyl-β-D-maltoside), the “glucose acceptor activity of DBM relative to tetradecyl-β-D-maltoside” value is “twice as active”. Also, in test [1] (0.5 mM acceptor replacing glycogen, up to 4 hours, SepPak C18 assay), the “glucose transfer relative to maximal value seen with glycogen” value is given as “about 20%”. Also, the “acceptor concentration giving near-maximal glycogen synthase activity” value in test [1] (0.1 to 10 mM acceptor, 60 min incubation) is recorded as “less than 0.5 mM”. Moreover, the “length of acceptor-linked oligosaccharide products formed by glycogen synthase” value in test [1] (24 hours with G-6-P, UDP-[3H]glucose, 0.5 mM acceptor, TLC and autoradiography) is reported as “greater than seven glucose residues”.
For the compound `CCCCCCCCO[C@H]1O[C@H](CO)[C@@H](O)[C@H](O)[C@H]1O` [Octyl-α-D-glucoside], at glycogenin, the “activity … for glycogenin” value was “effective glucose acceptor”.
The same measure, in the same setting: the result for `CCCCCCCCCCO[C@@H]1O[C@H](CO)[C@@H](O[C@H]2O[C@H](CO)[C@@H](O)[C@H](O)[C@H]2O)[C@H](O)[C@H]1O` [decyl-β-D-maltoside] reads “capable of serving as acceptor substrates”; that for `CCCCCCCCO[C@@H]1O[C@H](CO)[C@@H](O)[C@H](O)[C@H]1O` [octyl-β-D-glucoside], “activities are low”.
Regarding `CCCCCCCCO[C@@H]1O[C@H](CO)[C@@H](O[C@H]2O[C@H](CO)[C@@H](O)[C@H](O)[C@H]2O)[C@H](O)[C@H]1O` [octyl-β-D-maltoside], the “activity … for glycogenin” value on glycogenin was “capable of serving as acceptor substrates”. For the same compound, the “rank as glucose acceptor for glycogen synthase” value in test [1] was “best acceptor”.
As to `CCCCCCCCS[C@@H]1O[C@H](CO)[C@@H](O)[C@H](O)[C@H]1O` [octyl-β-D-thioglucoside], the “activity … for glycogenin” value on glycogenin is “more active as a glucose acceptor than octyl-β-D-glucoside”.
In the case of `CCCCCCCCCCCCCCO[C@@H]1O[C@H](CO)[C@@H](O[C@H]2O[C@H](CO)[C@@H](O)[C@H](O)[C@H]2O)[C@H](O)[C@H]1O` [tetradecyl-β-D-maltoside], at glycogenin, the “activity … for glycogenin” value is reported as “capable of serving as acceptor substrates”. Moreover, the “rank as glucose acceptor for glycogen synthase” value in test [1] was “followed by DBM and tetradecylmaltoside”.
dodecyl-β-D-sucrose: the “activity … for glycogenin” value at glycogenin is recorded as “much lower activity”.
